In one experiment the test system is TOR2-mTOR L2185C mutant. The experiment in a line: Yeast spotting assay for drug resistance, TOR2-mTOR L2185C. The conditions noted are these: 37° C., amphotericin B present (except OSI-027). Type of experiment: cell-based, S. cerevisiae. The source says: (§1) FIGS. 4A-C. […] (FIG. 4A) Scheme of a yeast-based screen for drug-resistant mutations in mTOR kinase domain. mTOR kinase domain is amplified by error-prone PCR to generate randomized mutations, which is then recombined in frame into the TOR2-mTOR plasmid by gap-repair in tort-dg cells, and is selected on SC-leucine minus plates. Replica plating is then made onto SC-leucine plates containing DMSO or mTOR kinase inhibitor for selection of drug resistant clones. (FIG. 4B) tor2-dg cells expressing WT or mutant TOR2-mTOR were serially diluted by 10-fold and assayed for sensitivity to different mTOR kinase inhibitors in the presence of amphotericin B. Vector and TOR2 were used as controls. Drug resistant assay was performed at 37° C. in the presence of amphotericin B (except OSI-027). (FIG. 4C) Systematic mutational analysis of L2185 on drug resistance. tort-dg cells expressing WT or mutant TOR2-mTOR carrying all possible mutations at L2185 were serially diluted by 10-fold and tested for sensitivity to different mTOR kinase inhibitors at 37° C.
(§2) To enhance yeast cell permeability, log phase W303 tort-dg cells were spread evenly on SD-Leu agarose plates. After drying, small sterile filter discs were placed on the surface and 5 μl of indicated mTOR inhibitors or DMSO were applied to each disc with or without adding 5 μl of amphotericin B (10 μM), miconazole (50 μM) or caspofungin (50 μM). Plates were incubated at 37° C. for 3 day. Drug resistance profiles of TOR2-mTOR mutant cells were determined by the spotting assay. For this assay, 10-fold serial dilutions of cells were spotted on SD-leu plates in the presence of indicated mTOR inhibitors with or without amphotericin B (200 nM) and incubated at 37° C. for 3 day.

Another experiment concerns TOR2-mTOR L2185A mutant. The experiment in a line: Yeast spotting assay for drug resistance, TOR2-mTOR L2185A. As to conditions: 37° C., amphotericin B present (except OSI-027). Format: cell-based, S. cerevisiae.
Source text: as §1, §2

Experiment [1] relates to xenograft tumors derived from SW480 cells carrying homozygous mTOR(L2185A) alleles. Kind of experiment: SW480 xenograft tumor model, mTOR(L2185A). Type of experiment: in vivo, mice. How it is done: (§3) FIGS. 6A-E. L2185A mutation renders resistance of xenograft tumors to mTOR kinase inhibitors. (FIG. 6A) Mice bearing xenograft tumors derived from SW480 cells expressing WT mTOR were administered with INK128 at 1 mg/kg or 0.3 mg/kg, once daily via intraperitoneal injection. Shown are representative animals and excised tumors after drug treatment. (FIG. 6B) Same as FIG. 6A except xenograft tumors were derived from SW480 carrying homozygous mTOR(L2185A) alleles. (FIG. 6C) Tumor volume measurement for SW480 xenograft tumors expressing mTOR (WT) (expressed as means±SD; n=8, *P<0.01, vs. vehicle control). (FIG. 6D) Tumor volume measurement for SW480 xenograft tumors expressing mTOR(L2185A) mutant (expressed as means±SD; n=8). (FIG. 6E) Tissue extracts from xenograft tumors at the end of treatment with or without 1 mg/kg INK128 were analyzed for the level of P-S6K, S6K, P-S6, S6, P-4E-BP1, 4E-BP1, P-AKT and AKT was analyzed by immunoblot. Six tumor samples from each animal group were shown with each lane representing an individual tumor sample.
(§4) Female athymic NCr-nu/nu mice (4-6 weeks old) were obtained from Taconic Farms. […] Tumor volume was calculated by the following formula: tumor volume (mm^3)=(shorter diameter^2× longer diameter)/2 and are presented as means±SD (n=8) (Zhang, Y., and Zheng, X. (2012). Cell Cycle 11, 594-603). […]

Another experiment deals with TOR2-mTOR L2185G mutant. The experiment in a line: Yeast spotting assay for drug resistance, TOR2-mTOR L2185G. Type of experiment: cell-based, S. cerevisiae. The conditions noted are these: 37° C., with amphotericin B.
Source text: as §1, §2

Experiment [2] concerns xenograft tumors derived from SW480 cells expressing WT mTOR. The experiment in a line: SW480 xenograft tumor model, WT mTOR. Type of experiment: in vivo, mice. How it is done:
as §3, §4

Setting [3] is: 1 mg/kg or 0.3 mg/kg once daily, intraperitoneal injection.
[4] abbreviates: 1 mg/kg, tumor extracts at end of treatment, immunoblot.

We go through 1 molecule from patent US10551384B2, “MTOR kinase mutations and methods of use thereof” (RUTGERS, THE STATE UNIVERSITY OF NEW JERSEY, priority 2016, dated 2020).

“Also recorded” adds a separate entry of the source.

For the molecule `CC(C)n1nc(-c2ccc3oc(N)nc3c2)c2c(N)ncnc21` [INK128], in the experiment on TOR2-mTOR L2185C mutant, the “drug resistance/sensitivity of TOR2-mTOR L2185C mutant yeast” value is “confer resistance; also recorded: conferring resistance”. Also, the “drug resistance/sensitivity of TOR2-mTOR L2185A mutant yeast” value in the experiment with TOR2-mTOR L2185A mutant is recorded as “confer resistance; also recorded: conferring resistance”. In addition, the “growth of mTOR(L2185A) xenograft tumors” value in experiment [1] (setting [3]) is on record as “little or no effect”. Besides, the “mTORC1 and mTORC2 signaling in mTOR(L2185A) xenograft tumors” value in experiment [1] (setting [4]) is “drug-resistance in mTORC1 and mTORC2 signaling”. The “drug resistance of TOR2-mTOR L2185G mutant yeast” value in the experiment on TOR2-mTOR L2185G mutant is “moderately resistant”. In addition, the “growth of WT mTOR xenograft tumors” value in experiment [2] (setting [3]) is recorded as “strongly attenuates growth”. Besides, in experiment [2] (setting [4]), the “mTOR signaling in WT mTOR xenograft tumors” value was “complete blockadge of mTOR signaling”.
